Experimental data as given in article PMC6156125, “Chemistry and Hypoglycemic Activity of GPR119 Agonist ZB-16” (Frontiers in Endocrinology, 2018).
“And” between values parts separate entries of the source, which are not always exact repeats. Identical values can stand only once. Like-named read-outs stand apart in the source and are kept apart here.

Legend:
human GPR119 (hGPR119) = target: T1, human GPR119 (hGPR119) (Homo sapiens, UniProt Q8TDV5); experiment: Specific (agonistic) activity in vitro, cAMP increase (Lance Ultra cAMP kit) in CHO-K1 cells expressing hGPR119; format: cell-based; settings: for EC50: CHO-K1 hGPR119, cAMP
T1 construct: expressed in transfected cells; host or cells: CHO-K1 (Chinese hamster ovary)
T1 sequence (Q8TDV5 1-335): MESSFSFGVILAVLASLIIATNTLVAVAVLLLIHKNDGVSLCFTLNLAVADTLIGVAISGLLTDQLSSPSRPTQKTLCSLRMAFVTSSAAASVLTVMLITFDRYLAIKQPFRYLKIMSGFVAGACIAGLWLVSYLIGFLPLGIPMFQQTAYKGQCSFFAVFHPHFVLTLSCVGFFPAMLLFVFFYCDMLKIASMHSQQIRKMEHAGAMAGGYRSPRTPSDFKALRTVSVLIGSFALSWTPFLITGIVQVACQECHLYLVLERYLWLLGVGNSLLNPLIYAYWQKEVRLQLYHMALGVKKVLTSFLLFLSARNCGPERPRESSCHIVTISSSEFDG
Procedure: Specific activity was evaluated using an immortalized Chinese hamster ovary cell line CHO-K1 steadily expressed human GPR119 (hGPR119). The cells (10^7 ml^−1) were cultured in Dulbecco's modified Eagle medium (DMEM) modified with 10% fetal bovine serum (FBS), revolved continuously at 50 rpm at 37°C in 8% CO2 for 3–4 days. Lance Ultra cAMP kit (Perkin Elmer, Waltham, MA, USA) was chosen as the experimental platform ([13]). The experiments were performed in accordance to the manufacturer's instructions. The agonistic activity of the test compounds was estimated by the increase in intracellular cAMP concentration, assuming the hGPR119 activation is followed by the activation of cellular adenylate cyclase, which increases intracellular cAMP levels ([4], [14]). Known agonists of hGPR119 receptors were used as positive controls to determine the maximal possible effect (MPE). The activity of test compounds was expressed in terms of median effective concentration (EC50).

[1] = tested on: rats with streptozotocin-nicotinamide (STZ-NA) induced T2D; experiment: Hypoglycemic activity after continuous (28 days) oral administration in T2D rat model, OGTT; format: in vivo
Procedure: Procedures were performed in 40 female Wistar rats weighing 250–280 g. Streptozotocin-nicotinamide-induced rat model of T2D was used ([24], [25]). Briefly, streptozotocin (Sigma, St. Louis, MO, USA) was administered i.p. to overnight fasted rats (65 mg/kg in 100 mmol/l citrate buffer, Ph 4.5). Nicotinamide (Sigma, St. Louis, MO, USA) (230 mg/kg) dissolved in saline was administered i.p. 15 min before streptozotocin. STZ-NA T2D had been confirmed 72 h after in rats with blood glucose levels in a range 9–14 mmol/l measured in fasting (6 h) conditions. […] Following the continuous oral administration of sitagliptin (10 mg/kg), ZB-16 (1 mg/kg) or saline during 28 days STZ-NA T2D confirmation the fasting blood glucose levels were measured, and oral glucose tolerance test (OGTT) was performed. For OGTT rats received an oral dose of […] glucose dissolved in saline; blood glucose levels were monitored every 30 min for 2 h after glucose administration. Sitagliptin dose was chosen in accordance with published data ([26]).

[2] = Pharmacokinetics in vivo after single oral or intravenous administration; set-up: species or system rat; settings: rats, 10 mg/kg; for Vd: read-out: Vz
Procedure: The pharmacokinetics of ZB-16 in a dose of 10 mg/kg after single oral or intravenous administration was studied in 6 male Wistar rats weighing 250–280 g. The blood from the tail vein (200 μL) was collected before and at 0, 0.25, 0.5, 1, 2, 4, 8, 12, and 24 h after ZB-16 administration. The blood concentrations of the test compounds in animals were evaluated using HPLC-MS/MS. Basic pharmacokinetic parameters were calculated using a non-model method and WinNonlin Professional 6.0 (Pharsight Corporation, Mountain View, CA, USA) based on the experimental concentration-time data obtained on each animal.

[3] = tested on: male Wistar rats with streptozotocin-nicotinamide induced type 2 diabetes mellitus (STZ-NA T2D); set-up: method as in PMID 28736546; settings: 1 mg/kg/day orally for 28 day, ref [11]; cited from earlier work
[4] = male, Wistar, rat, plasma, iv, i.v. injection, Mean ± SD (n = 3)
[5] = male, Wistar, rat, plasma, iv, i.v. injection, individual rat
[6] = male, Wistar, rat, plasma, po, oral administration, Mean ± SD (n = 3)
[7] = male, Wistar, rat, plasma, po, oral administration, individual rat
[8] = oral administration, individual rat

Structure (SMILES): O=S1(=O)COc2cc(-c3ccc(OCC4CCN(c5ncc(Cl)cn5)CC4)c(F)c3)ccc21 [ZB-16]
- EC50 (human GPR119 (hGPR119)): 7.25 nM
- EC50 (human GPR119 (hGPR119); values of the text): 7.3 to 9.7 nM
- type of agonism on GPR119 (human GPR119 (hGPR119); response normalized to control substance (Arena)): complete agonist
- reduction in the area under the glucose concentration-time curve compared to the control group ([1]; OGTT on day 28, 1 mg/kg/day oral): 22%
- blood glucose levels lower than in saline group ([1]; OGTT on day 28, 1 mg/kg/day oral, 30 min after oral glucose (3 mg/kg)): 27%
- mean blood glucose level ([1]; OGTT on day 28, 1 mg/kg/day oral, two hours after glucose administration): 9.1 ± 0.37 mmol/L
- blood glucose levels ([1]; daily oral ZB-16 1 mg/kg or sitagliptin 10 mg/kg for 28 days, STZ-NA T2D): reduction
- AUC(0-t) ([2]; male, Wistar, plasma, iv, i.v. injection, individual rat, read-out: AUC 0-t): 244 ng·h/mL
- Tmax ([2]; male, Wistar, plasma, oral administration, individual rat): 4 h
- half-life ([2]; male, Wistar, rat, plasma, read-out: half-life): > 12 h
- bioavailability ([2]; male, Wistar, rat, plasma, oral vs i.v., read-out: absolute bioavailability): 8%
- AUC(0-inf) [2, 4]: 339 ± 97.2 ng·h/mL
- clearance [2, 4]: 100 mL/min/kg
- k el [2, 4]: 1.39e-05 s⁻¹
- AUC(0-t) ([2]; male, Wistar, rat, plasma, iv, i.v. injection, Mean ± SD (n = 3), read-out: AUC 0-t): 218 ± 30.4 ng·h/mL
- C0 ([2]; male, Wistar, rat, plasma, iv, i.v. injection, Mean ± SD (n = 3), read-out: C0): 32 ± 8.7 ng/mL
- MRT last ([2]; male, Wistar, rat, plasma, iv, i.v. injection, Mean ± SD (n = 3), read-out: MRT last): 9 ± 1 h
- Vd [2, 4]: 123 ± 18.1 L/kg
- half-life ([2]; male, Wistar, rat, plasma, iv, i.v. injection, Mean ± SD (n = 3), read-out: t1/2 (converted)): 15 ± 5.8 h
- AUC(0-inf) [2, 5]: 441 ng·h/mL
- clearance [2, 5]: 83.3 mL/min/kg
- k el [2, 5]: 8.33e-06 s⁻¹
- AUC(0-t) ([2]; male, Wistar, rat, plasma, iv, i.v. injection, individual rat, read-out: AUC 0-t): 226 ng·h/mL
- C0 ([2]; male, Wistar, rat, plasma, iv, i.v. injection, individual rat, read-out: C0): 29 ng/mL
- MRT last ([2]; male, Wistar, rat, plasma, iv, i.v. injection, individual rat, read-out: MRT last): 10 h
- Vd [2, 5]: 139 L/kg
- half-life ([2]; male, Wistar, rat, plasma, iv, i.v. injection, individual rat, read-out: t1/2 (converted)): 21 h
- AUC(0-inf) [2, 6]: 119 ± 11.9 ng·h/mL
- k el [2, 6]: 1.67e-05 s⁻¹
- AUC(0-t) ([2]; male, Wistar, rat, plasma, po, oral administration, Mean ± SD (n = 3), read-out: AUC 0-t): 85 ± 17.6 ng·h/mL
- Cmax ([2]; male, Wistar, rat, plasma, po, oral administration, Mean ± SD (n = 3), read-out: Cmax): 6 ± 1.2 ng/mL
- MRT last ([2]; male, Wistar, rat, plasma, po, oral administration, Mean ± SD (n = 3), read-out: MRT last): 9 ± 1 h
- half-life ([2]; male, Wistar, rat, plasma, po, oral administration, Mean ± SD (n = 3), read-out: t1/2 (converted)): 13 ± 5.2 h
- AUC(0-inf) [2, 7]: 124 ng·h/mL
- k el [2, 7]: 1.11e-05 s⁻¹
- AUC(0-t) ([2]; male, Wistar, rat, plasma, po, oral administration, individual rat, read-out: AUC 0-t): 69 ng·h/mL
- Cmax ([2]; male, Wistar, rat, plasma, po, oral administration, individual rat, read-out: Cmax): 4 ng/mL
- MRT last ([2]; male, Wistar, rat, plasma, po, oral administration, individual rat, read-out: MRT last): 10 h
- half-life ([2]; male, Wistar, rat, plasma, po, oral administration, individual rat, read-out: t1/2 (converted)): 19 h
- AUC 0−∞ ([2]; i.v. injection, individual rat): 247 ng·h/mL and 329 ng·h/mL
- AUC(0-t) ([2]; i.v. injection, individual rat): 184 ng·h/mL
- C0 ([2]; i.v. injection, individual rat): 26 ng/mL and 42 ng/mL
- CL ([2]; i.v. injection, individual rat): 130 mL/min/kg
- Kel ([2]; i.v. injection, individual rat): 0.06 h⁻¹
- MRT last ([2]; i.v. injection, individual rat): 8 h
- Vz ([2]; i.v. injection, individual rat): 127 L/kg and 104 L/kg
- t1/2 ([2]; i.v. injection, individual rat): 11 h and 12 h
- AUC 0−∞ [2, 8]: 128 ng·h/mL and 105 ng·h/mL
- AUC(0-t) [2, 8]: 104 ng·h/mL and 83 ng·h/mL
- Cmax [2, 8]: 7 ng/mL
- Kel [2, 8]: 0.07 h⁻¹
- t1/2 [2, 8]: 10 H
- blood glucose levels under fasting conditions [3]: decreased
- glucose utilization [3]: improved
- stimulated secretion of GLP-1 and insulin [3]: increase
